In the NIST ThermoML archive (doi:10.1016/j.jct.2015.07.012):

What was measured:
[1] = refractive index (Na D-line) (dimensionless); conditions: 303.15 K; 101.33 kPa; Liquid; Standard Abbe refractometry
[2] = 101.33 kPa, Liquid; for speed of sound: Sing-around technique in a fixed-path interferometer; for mass density: Vibrating tube method
[3] = wn = mass fraction of the nth substance listed; conditions: 298.15 K, 100 kPa, Liquid; for speed of sound: Frequency=3 MHz, Sing-around technique in a fixed-path interferometer; for mass density: Vibrating tube method

CCCCCCC(=O)[O-].C[NH2+]C1CCCCC1 [N-methylcyclohexylammonium heptanoate]
Conditions	refractive index
[1]	1.4636

[2]
Conditions	mass density [kg/m3]	speed of sound [m/s]
293.15 K	945.8	1478.3
298.15 K	942.18	1458.5
303.15 K	938.51	1440.2
308.15 K	934.81	1422.2
313.15 K	931.05	1404.5
318.15 K	927.26	1385.1
323.15 K	923.44	1368.6
328.15 K	919.59	1351.4
333.15 K	915.71	1334.1
338.15 K	911.8	1316.1
343.15 K	907.85	1299.1

CCCCCCCC(=O)[O-].C[NH2+]C1CCCCC1 [N-methylcyclohexylammonium octanoate] + O
[3]
Conditions	mass density [kg/m3]	speed of sound [m/s]
w2 = 0.002193	935.17	1453.1
w2 = 0.004032	935.76	1457.6
w2 = 0.005228	936.14	1459.7
w2 = 0.007628	937.01	1462.3
w2 = 0.009495	937.53	1463.2

CCCCCC(=O)[O-].C[NH2+]C1CCCCC1 [N-methylcyclohexylammonium hexanoate]
Conditions	refractive index
[1]	1.4631

[2]
Conditions	mass density [kg/m3]	speed of sound [m/s]
293.15 K	955.14	1484
298.15 K	951.65	1464.9
303.15 K	948.13	1446.4
308.15 K	944.56	1428.2
313.15 K	940.96	1410.3
318.15 K	937.32	1392.6
323.15 K	933.66	1375
328.15 K	929.96	1357.5
333.15 K	926.23	1340
338.15 K	922.46	1322.6
343.15 K	918.66	1305.2

CCCCC(=O)[O-].C[NH2+]C1CCCCC1 [N-methylcyclohexylammonium pentanoate]
Conditions	refractive index
[1]	1.4627

[2]
Conditions	mass density [kg/m3]	speed of sound [m/s]
293.15 K	965.76	1495.3
298.15 K	962.21	1475.7
303.15 K	958.63	1456.7
308.15 K	955.01	1438.2
313.15 K	951.34	1420.1
318.15 K	947.63	1402.1
323.15 K	943.88	1384.2
328.15 K	940.1	1366.5
333.15 K	936.29	1348.8
338.15 K	932.44	1331.1
343.15 K	928.54	1313.5

CCCCCCCC(=O)[O-].C[NH2+]C1CCCCC1 [N-methylcyclohexylammonium octanoate]
Conditions	refractive index
[1]	1.464

[2]
Conditions	mass density [kg/m3]	speed of sound [m/s]
293.15 K	938.59	1471.6
298.15 K	935.17	1453.1
303.15 K	931.73	1435
308.15 K	928.25	1417.2
313.15 K	924.74	1399.5
318.15 K	921.21	1381
323.15 K	917.65	1363.7
328.15 K	914.07	1346.5
333.15 K	910.46	1329.4
338.15 K	906.82	1312.4
343.15 K	903.15	1295.4
